The results in this text go back to ChEMBL document CHEMBL4613299, “Optimization of Indazole-Based GSK-3 Inhibitors with Mitigated hERG Issue and In Vivo Activity in a Mood Disorder Model” (ACS Med Chem Lett, 2020).

Converted amounts (≈) assume the structure as drawn.

Series [1] is described as follows: Half life in CD mouse pooled liver microsomes at 10 uM incubated in shaking water bath measured up to 60 mins in presence of NADPH by HPLC-MS/MS analysis. It counts as ADME, Microsome.
A short description of series [2]: Cmax in plasma of CD1 mouse at 10 mg/kg, ip measured up to 7 hrs by LC-MS/MS analysis. Set-up: dose 10 mg/kg, route intraperitoneal. It counts as ADME, organism-based.
The nature of series [3]: Half life in CD1 mouse at 10 mg/kg, ip measured up to 7 hrs by LC-MS/MS analysis. The following applies: in vivo. It counts as ADME, organism-based.
A short description of series [4]: AUC (0 to infinity) in CD1 mouse at 10 mg/kg, ip measured up to 7 hrs by LC-MS/MS analysis. It counts as ADME, organism-based. On the set-up: dose 10 mg/kg, time infinity, route intraperitoneal. The conditions noted are these: in vivo.
The nature of series [5]: Cmax in brain of CD1 mouse at 10 mg/kg, ip measured up to 7 hrs by LC-MS/MS analysis. It counts as ADME, organism-based. On the set-up: dose 10 mg/kg, route intraperitoneal.
Series [6] in a line: Half life in human pooled liver microsomes at 10 uM incubated in shaking water bath measured up to 60 mins in presence of NADPH by HPLC-MS/MS analysis. The class given is ADME, Microsome.
The nature of series [7]: Aqueous solubility of compound in PBS buffer at 200 uM and pH 7.4 incubated for 24 hrs under shaking condition by chromatographic analysis. It counts as physicochemical.
Series [8] in a line: AUC (0 to t) in CD1 mouse at 10 mg/kg, ip measured up to 7 hrs by LC-MS/MS analysis. It counts as ADME, organism-based. Set-up: time < 7 hr, dose 10 mg/kg, route intraperitoneal. The following applies: in vivo.
A short description of series [9]: Tmax in CD1 mouse at 10 mg/kg, ip measured up to 7 hrs by LC-MS/MS analysis. It counts as ADME, organism-based. The conditions noted are these: in vivo.

With `O=C(NCC1CCOCC1)c1n[nH]c2ccc(-c3cncc(CO)c3)cc12`, the half-life at 10 µM in series [1] and in [6] was over 1 h throughout. The peak concentration (Cmax) in [2] was 949 ng/mL; in [5], 21.1 ng/g. This molecule had a half-life in [3] of 2 h. This molecule also gave an AUC(0-inf) in series [4] of 791 ng·h/mL. Also, the solubility at 24 h, 200 µM in series [7] was 200 µM (≈ 73.3 µg/mL). Moreover, the area under the curve AUC(0-t) at 7 h in series [8] came out at 781 ng·h/mL. The time to peak (Tmax) in series [9] came to 0.5 h.
